According to a melting point compilation (Tetko et al.; mined from patent text by program, amines drawn as free bases though some values may be those of a salt):

Row | melting point [°C] | SMILES
1 | 221 | CC(C)(CO)NS(=O)(=O)c1cccc(-c2cc(-c3nc(-c4ccc(C(F)(F)F)cc4)cc(C(F)(F)F)n3)ccn2)c1
2 | 99 to 100 | CCOC(=O)c1cn(-c2ccc(C(F)(F)F)cn2)nc1C1CCCCC1
3 | 124 to 128 | OC[C@H](O)[C@@H](O)[C@H](O)[C@H](O)C=NN(Cc1ccccc1)c1ccccc1
4 | 162 to 164 | CC(c1cc(C(C)(C)C)c(O)c(C(C)(C)C)c1)N(O)C(N)=O (centres undefined)
5 | 222 to 223 | NC(=O)c1ccc(-c2cccc3cc(Cc4cccc(C(F)(F)F)c4)sc23)nc1
6 | 117 | OC(CN1CCNC1=S)c1cccc(C(F)(F)F)c1 (centres undefined)
7 | > 300 | COC(=O)NNC(=O)Nc1cccc2c1C(=O)c1c-2n[nH]c1-c1ccc(OC)cc1
8 | 153 | Cc1nc2c(O)c(C(=O)[C@@H]3OC(C)(C)O[C@H]3c3ccccc3)ccc2n1C1CC1
9 | 183 to 184 | Clc1cnn2c(-c3ccncc3)ccnc12
10 | 73 to 75 | O=C(CCc1c[nH]c2ccccc12)NCc1ccccc1
11 | 50 to 52 | CC(=O)c1ccc(CC(=O)OC(C)(C)C)cc1
12 | 75 to 77 | Cc1nc(C(F)(F)F)ccc1C(=O)C1=C(O)C(C)(C)CCC1=O
13 | 90.5 to 91.5 | CCC(O)CN1CCC(C)C(c2ccc(Cl)cc2)=N1 (centres undefined)
14 | 147 to 148 | COc1cc2c(cc1OC)C(Oc1ccccc1C#N)CN(C)C2 (centres undefined)
15 | 270 to 275 | COc1cccc(-c2ccc3ccc(N)nc3n2)c1
16 | 200 to 203 | O=CN1CCN(C2=C(O)C(=O)c3ccccc3C2=O)CC1
17 | 75 | CCOC(=O)CC(NC(=O)c1ccccc1)C(=O)c1cccs1 (centres undefined)
18 | 260 to 266 | CNC(=O)c1ccc(N2CCN(Cc3cnc4c(c3)[nH]c(=O)n3cccc43)CC2)c(Cl)c1
19 | 118 to 121 | CCOC(=O)c1cc([N+](=O)[O-])ccc1NC(=O)OC(C)(C)C
20 | 166 to 169 | CCOS(=O)(=O)c1nc2nc(C)cc(Cl)n2n1
21 | 166 to 168 | COC(=O)C(=CNc1ccc(F)cc1)C(=O)C=Cc1ccc(Cl)cc1
22 | 151 | N#CC(=NO)c1ccc(Cl)cc1Cl
23 | 196 to 200 | Cc1c(F)cc(C(=O)O)cc1-c1ccc(C(=O)NCC(C)(C)C)cc1C(=O)Nc1nccs1
24 | 134 to 137 | COc1cc(C(O)CN2CCC(Cc3ccccc3)CC2)on1 (centres undefined)
25 | 177 to 179 | COc1ccc(-c2nc3sccn3c2/C=C/C(=O)c2ccc[nH]2)cc1

Row | melting point [°C] | SMILES
26 | 104 to 105 | COc1cc(C(C)=O)ccc1OCCCCN1CCC(C(O)(c2ccc(F)cc2)c2ccc(F)cc2)CC1
27 | 121 to 122 | CC(C)(C)OC(=O)C1CCCN2C(=O)CC(=O)N12 (centres undefined)
28 | 232 | Cc1ccc(NC(=S)Nc2cccc3c2C2CCCCN2C3=O)nc1 (centres undefined)
29 | 124 to 126 | Cn1cc(C2=C(c3c4n(c5ccccc35)CCC(CNC(=O)OC(C)(C)C)C4)C(=O)OC2=O)c2ccccc21 (centres undefined)
30 | 110 to 112 | CCOC(=O)c1cc2c(CC)nc(CC)cc2n(Cc2ccc(-c3ccccc3-c3nnn(C(c4ccccc4)(c4ccccc4)c4ccccc4)n3)cc2)c1=O
31 | 123 to 124 | N#CC(C=O)=Cc1ccsc1
32 | 124 to 125 | O=[N+]([O-])c1ccc(Nc2cccc(C(F)(F)C(F)(F)C(F)(F)C(F)(F)C(F)(F)C(F)(F)C(F)(F)C(F)(F)F)c2)c([N+](=O)[O-])c1
33 | 259 to 261 | CNC(=O)C1CCCc2c1c1cc(OC)ccc1n2Cc1ccccc1 (centres undefined)
34 | 187 to 188 | CCOC(=O)C1=Cc2cc(Cl)cc(C=NO)c2OC1C(F)(F)F (centres undefined)
35 | > 200 | O=C1CNc2ncc(I)cc2N1Cc1cccc(F)c1C(F)(F)F
36 | 160 to 161 | CC(C)n1nc(-c2cnc(N)nc2-c2ccccc2C(F)(F)F)ccc1=O
37 | 110 to 113 | C=CC(c1ncc([N+](=O)[O-])n1C)N(C)C (centres undefined)
38 | 198 to 204 | CCN1C(=O)N(c2cc(OC)cc(OC)c2F)Cc2cnc(NC3CCC(O)CC3)nc21 (centres undefined)
39 | 220 | COc1ccc(S(=O)(=O)C(C(=O)NO)C(C)C)cc1 (centres undefined)
40 | 208 to 210 | COc1cc(-c2nc(-n3nccn3)c3c(C)c(C#N)sc3n2)cc(OC)c1OC
41 | 193 to 195 | CC(=O)c1ccc2c(c1)ncn2-c1cccc(N2CCN(C(C)=NO)CC2)c1
42 | 208 to 212 | Cc1ccc2c(c1)[C@@]1(C)Cc3ccccc3[C@@]1(C)N2 (relative stereo)
43 | 63 to 65 | CCCCn1c(=O)n(CCC)c(=O)c2c3n(nc21)CCCCN3C
44 | 73 | O=[N+]([O-])c1ccc(Cl)cc1NCC1CCCCC1
45 | 229 to 230 | CCOC(=O)c1cn2c(cc(Cl)c3ccc(Cl)cc32)n1
46 | 244 | O=C(c1ccc(OC(F)F)c2oc3ccccc3c12)[NH+]([O-])c1ccncc1 (centres undefined)
47 | 312 to 314 | CN1CCN(c2ccc(Nc3ncc4c(n3)S/C(=C/c3ccc(O)cc3)C(=O)N4)cc2)CC1
48 | 160 to 162 | CNS(=O)(=O)Cc1ccc2[nH]cc(C3CCN(C)C3)c2c1 (centres undefined)
49 | 85 to 87 | CC1=C(C(=O)Nc2ccccc2)OCCO1
50 | 92 to 94 | CCCS(=O)c1cc(OCCCS(=O)Cc2ccccc2)ccc1C (centres undefined)

Row | melting point [°C] | SMILES
51 | 192 to 195 | c1cn2cc(-c3cnc4cc[nH]c4c3)cc(Nc3cc4n(n3)CCOC4)c2n1
52 | 81 to 83.5 | O=C(Nc1ccccc1N1CCc2ccccc21)C1CCC1
53 | 171 to 172 | c1ccc(-c2cc3ccccc3s2)cc1
54 | 127 to 132 | CC(=O)Oc1c(C)c(C)c2c(c1C)CCC(C)(O)O2 (centres undefined)
55 | 124 to 125 | Nc1ccccc1Nc1ccccn1
56 | 211 to 212 | CCOC(=O)c1cc(Oc2ccc3c(C(=O)O)cccc3c2)ncn1
57 | 186 to 188 | c1ccc(-c2cc3c(N4CCOCC4)nnc(N4CCOCC4)c3cn2)cc1
58 | 65 to 68 | CCCN(CCC)C(=O)c1cc(C(=O)N[C@@H](Cc2cc(F)cc(F)c2)[C@H](O)CNCc2cc(CN(C)C)ccn2)cc(-c2ncco2)c1
59 | 74 | CC(=O)c1ccc(OCCCCl)cc1O
60 | 70 to 71 | C#CCn1cc(C(=O)OCC)sc1=O
61 | 149 to 151 | CN(Cc1nc(-c2cc(C(C)(C)C)c(O)c(C(C)(C)C)c2)cn1COCC[Si](C)(C)C)c1ccc([N+](=O)[O-])cc1
62 | 180 to 184 | O=C1N=C(N2CCSCC2)SC1=Cc1cccc(-c2cc(F)c(O)c(C34CC5CC(CC(C5)C3)C4)c2)c1
63 | 198 to 201 | O=C(c1ccccc1)N1CCc2[nH]c3cccc(-c4cc(F)cc(F)c4)c3c2CC1
64 | 258 to 259 | CC(=O)NC(C(=O)Nc1ccc(C(=O)O)cc1)c1ccc2c(c1)C(C)(C)CCC2(C)C (centres undefined)
65 | 107 to 109 | CON(C)C(=O)[C@@H](Cc1ccc(OCc2ccccc2)cc1)NC(=O)OC(C)(C)C
66 | 77 to 79 | CCN(CC)C(=O)n1ccc(Sc2ccc(Br)cc2Cl)n1
67 | 240 to 242 | O=C1Nc2ccccc2N(C(=O)CN2CCOCC2)c2ncncc21
68 | 156 to 159 | COc1ccc(C(=O)N2CCN(c3cc4ccccc4cn3)CC2)cc1
69 | 77 to 78 | O=S(=O)(c1ccc(Cl)cc1)C(CCCCF)c1cc(F)ccc1F (centres undefined)
70 | 109 to 111 | CCOC(OCC)c1[nH]c(C2CC2)nc(=O)c1Cl
71 | 108 to 111 | CCOC(=O)Cc1c(C(=O)OCC)c(C)c(C(=O)c2ccc(C)cc2)n1C
72 | 182 to 185 | CC(C)N1CCN(Cc2ccc3c(c2)-c2[nH]nc(-c4ccsc4)c2C3)CC1
73 | 84 to 86 | CCNC(=O)ON=C1N=C(C)C(C)(C)S1
74 | 148 to 150 | CC(C)(C)c1cc(-c2nn(CCN3CCCC3=O)c3ncccc23)cc(C(C)(C)C)c1O
75 | 168 | NS(=O)(=O)c1cncc([N+](=O)[O-])c1

Row | melting point [°C] | SMILES
76 | 119 to 123 | CC(C)(Cl)Cn1ncc(OCc2ccc(I)nc2)c(Cl)c1=O
77 | 212 to 213 | CCOC(=O)c1cc(C#N)c(C)nc1O
78 | 215 to 220 | Nc1nc(-n2cc(C(=O)O)c(=O)c3cc(F)c(N4CC(O)C4)c(Br)c32)c(F)cc1F
79 | 140 to 142 | Cc1cccc(NC(=O)Nc2ccc(-c3c(C(N)=O)[nH]c4ccccc34)cc2)c1
80 | 203 to 205 | O=C1CCC(N2Cc3c(OCc4ccc(Cc5nc6ccccc6[nH]5)cc4)cccc3C2=O)C(=O)N1 (centres undefined)
81 | 91 to 93 | CCCCCCCCCCCCCCCCNS(=O)(=O)c1ccc(Cl)c([N+](=O)[O-])c1
82 | 196 to 197 | O=C1NC(=O)C(S(=O)(=O)c2ccc3ccccc3c2)S1 (centres undefined)
83 | 151 to 152 | O=C(Nc1cccc(C(F)(F)F)c1)c1ccccc1NCCc1ccncc1
84 | 100 to 102 | O=C1Cc2cccc(Oc3ccc(Cl)cc3)c2O1
85 | 124 to 126 | NC(=O)N(O)CCc1ccc(Sc2cccc(C(F)(F)F)c2)s1
86 | 54 to 55 | C(=C(c1ccccc1)c1ccccc1)C1CCN(CCCCCCCCc2cccnc2)CC1
87 | 168 | Cc1cn2ccc(NC(=O)C(F)(F)F)c(I)c2n1
88 | 158 to 159 | CC1COP(=O)(Cc2ccc(N)cc2)OC1 (centres undefined)
89 | 50 to 51 | CC(=O)C=CC1=C(C)C(=O)CCC1(C)C
90 | 192 to 193 | COc1cc(OC)nc(NC(=O)NS(=O)(=O)c2ccccc2S(N)(=O)=O)n1
91 | 91 to 96 | CCOc1ccn2nc(S(=O)(=O)Cl)nc2n1
92 | 251 to 255 | N#CC(Nc1ccc(SSc2ccc(NC(C#N)c3ccc(S(N)(=O)=O)cc3)cc2)cc1)c1ccc(S(N)(=O)=O)cc1 (centres undefined)
93 | 200 to 203 | CCCc1cc(Cl)c2oc(C(=O)O)c(C)c2c1O
94 | 274 to 276 | CC(=O)c1cc(O)cc2cc(-c3ccc(O)cc3)oc12
95 | 72 to 74 | COc1cc(C=CC=NO)ccc1OC(C)=O
96 | 132 to 135 | C#CCC(=C1NCCCS1)[N+](=O)[O-]
97 | 154 to 158 | COCO[C@H]1C[C@H]2OC(C)(C)OC[C@]23C2C(CC[C@]3(O)C1)[C@@]1(OCOC)CC[C@H](CO)[C@@]1(C)C[C@H]2OCOC (some centres undefined)

Row | SMILES | melting point [°C]
98 | Cc1cnc2n1-c1ccc(Cl)cc1C(c1ccccc1)=NC2 | 190 to 191
99 | CC(C)(C)c1cc(C(=O)c2ccn(Cc3ccccc3)c2)cc(C(C)(C)C)c1O | 123 to 124
